According to patent US5219879A, “Heterocyclic steroid compounds” (Du Pont Merck Pharmaceutical Company, priority 1991, dated 1993):

Assays:
[1] = Lowering Blood Cholesterol Levels in Hamsters; assay type: in vivo, Male Golden Syrian hamsters; conditions: 0.2% (w/w) in feed, 7 days; means ± SEM; N = 10; pair-fed control 133.0 ± 4.0 (N = 20)
Description: Male Golden Syrian hamsters (50-60 grams) were obtained from Charles River, Inc. (Wilmington, Mass.).
Animals were housed in individual suspension cages and were maintained on a light cycle consisting of 12 hours of light followed by 12 hours of dark. Animals were allowed free access to water and feed (Agway ground chow, RMH 3200, Agway, Syracuse, N.Y.) containing 1% (w/w) corn oil) for a minimum of 4 weeks.
Following this stabilization period a sample of blood was collected by orbital sinus bleeding under light ether anesthesia into heparinized capillary tubes. Plasma was separated by centrifugation (600×g for 10 minutes) and plasma cholesterols were determined by an autoanalyzer (Centrifichem 600, Baker Instruments, Allentown, Pa.). Based upon measured plasma cholesterol values, the animals were randomized into two groups such that the mean plasma cholesterol values were identical for both groups.
Animals in the two groups were then placed on one of two diets: (1) Diet A, consisting of ground chow plus 1% (w/w) corn oil, as described above; or (2) Diet B, consisting of Diet A plus 0.2% (w/w) of a test compound. Animals on Diet B, the treated animals, were allowed free access to feed and water, while animals on Diet A were pair-matched with Diet B animals and served as pair-fed controls. […] Total plasma cholesterol levels were determined as described above. […]

[2] = tested on: 3-Hydroxy-3-Methylglutaryl Coenzyme A Reductase (HMGR); assay: 3-Hydroxy-3-Methylglutaryl Coenzyme A Reductase (HMGR) Suppression Assay; assay type: cell-based, Chinese Hamster (CHO cells); conditions: CHO cells, 6 hr. at 37°; read-out: IC50 (amount of compound required to suppress HMGR activity by 50% relative to controls)
Description: The ability of the compounds of Formula I to suppress the activity of HMGR, the rate limiting enzyme of cholesterol biosynthesis, was tested as follows.
Chinese Hamster Ovary (CHO) cells were divided twice weekly and were maintained in McCoy's 5A medium supplemented with 1% carbosil delipidated Fetal Bovine System (FBS) (obtained from Gibco Laboratories, Chagrin Falls, Ohio). Cells were harvested during the logarithmic phase of growth and cell cultures were prepared by adding […] cells to each well in a 24 well cluster dish (obtained from Costar, Data Packaging Corp., Cambridge, Mass.) employing 1 ml of the above medium per each well. […] Control cells were treated in an identical fashion to those which received test compound, except they were incubated with the BSA and ethanol suspension only.
Specifically, the medium in each well was aspirated and the cells rinsed with a 50 mM solution of phosphate buffered saline (PBS). One ml of 30 mg/ml of digitonin in CSK buffer (prepared using 10 mM Pipes [piperazine-N,N'-bis (2-ethansulfonic) acid], 100 mM KCl, 2.5 mM MgCl2, 300 mM sucrose, 1 mM EGTA, pH 6.8) was added to each well and incubated for 10 min. at 22° to permeabilize the cells. The buffer was carefully aspirated and the wells were rinsed twice each time with 1 ml of PBS. HMGR activity was measured directly by adding 75 ml of PIB buffer (50 mM potassium phosphate, 1 mM Na2 EDTA, 10 mM dithiothreitol, pH 7.4) to each well and incubating the cells for 30 minutes at 37° as described above. […] The assay mixture was incubated for 30 min. at 37° and terminated by the addition of 70 ml of [^3 H]-mevalonicacid (35,000 DPM/assay), 0.15 mg/ml in 3N HCl.
The reaction was left to lactonize for an additional 30 min. at 37° or overnight at room temperature.
Reaction products were separated by thin layer chromatography on silica gel G (obtained from Analtech, Newark, Del.) developed in an unsaturated environment with acetone:benzene (3:2, v:v). The band corresponding to mevalonolactone was identified by exposure to iodine vapor and was scraped into counting vials. The extent of conversion of starting substrate, HMG-CoA, to mevalonic acid was determined by liquid scintillation counting in Biofluor (obtained from New England Nuclear, Boston, Mass.). Corrections for recovery and blank values were made for each sample. Protein determinations were made by Bio-Rad (Bio-Rad, Richmond, Calif.) dye binding assay according to the manufacturer's instruction using bovine serum albumin as standard. Cellular protein was solubilized from culture dishes by the addition of 20 μl of 16N KOH and assayed directly for protein amount. Suppression values are expressed as the amount of compound required to suppress HMGR activity by 50% relative to that of the controls.

[3] = tested on: Puccinia recondita; assay: Example G: wheat leaf rust on wheat seedlings; assay type: in vivo; conditions: 220 ppm, 100 = 100% disease control
Description: (§1) The test compounds were dissolved in acetone in an amount equal to 6% of the final volume and then suspended at a concentration of 220 ppm in purified water containing 250 ppm of the surfactant TREM 014 (polyhydric alcohol esters). This suspension was sprayed to the point of run-off on wheat seedlings. The following day plants were inoculated with a spore suspension of Puccinia recondita, the causal agent of wheat leaf rust, and incubated in a saturated humidity chamber at 20° C. for 48 hours and then in a growth chamber at 20° C. for 8 days, when disease ratings were made. […] A dashed entry indicates the specified test was not performed.

[4] = tested on: Botrytis cinerea; assay: Example J: grape grey mold on grape seedlings; assay type: in vivo; conditions: 200 ppm, 100 = 100% disease control
Description: as §1, with “200” for “220”, “grape” for “wheat”, “Botrytis cinerea,” for “Puccinia recondita,”, “grape grey mold,” for “wheat leaf rust,”, “96” for “48”, “hours” for “hours and then in a growth chamber at 20° C. for 8 days,”

[5] = tested on: peanut seedlings; assay: Example B: plant disease control on peanut seedlings; assay type: in vivo; conditions: 200 ppm, 100 = 100% disease control
Description: The test compounds were dissolved in acetone in an amount equal to 6% of the final volume and then suspended at a concentration of 200 ppm in purified water containing 250 ppm of the surfactant TREM […] (polyhydric alcohol esters). This suspension was sprayed to the point of run-off on peanut seedlings. The following day plants were incubated in a saturated humidity chamber at 22° C. for 24 hours, then in a high humidity chamber at 27° C. for 7 days, and then in a growth chamber at 29° C. for 7 days, when disease ratings were made.
In this table, a rating of 100 indicated 100% disease control, and a rating of 0 indicates no disease control relative to untreated plants that were inoculated and incubated as described in each Example. A dashed entry indicates the specified test was not performed.

[6] = tested on: Pyricularia oryzae; assay type: in vivo; conditions: rice seedlings, 200 ppm; 100 = 100% disease control
[7] = tested on: Botrytis cinerea; assay: Example K: cucumber grey mold on cucumber seedlings; assay type: in vivo; conditions: 200 ppm, 100 = 100% disease control
Description: as §1, with “200” for “220”, “cucumber” for “wheat”, “Botrytis cinerea,” for “Puccinia recondita,”, “cucumber grey mold,” for “wheat leaf rust,”, “4 days” for “48 hours and then in a growth chamber at 20° C. for 8 days,”

[8] = tested on: Venturia inaequalis; assay: Example A: apple scab on apple seedlings; assay type: in vivo; conditions: 200 ppm, sprayed the day before inoculation, 100 = 100% disease control
Description: (§2) The test compounds were dissolved in acetone in an amount equal to 6% of the final volume and then suspended at a concentration of 200 ppm in purified water containing 250 ppm of the surfactant TREM 014 (polyhydric alcohol esters). This suspension was sprayed to the point of run-off on apple seedlings. The following day plants were inoculated with a spore suspension of Venturia inaequalis, the casual agent of apple scab, and incubated in a saturated humidity chamber at 20° C. for 24 hours and then in a growth chamber at 22° C. for 11 days, when disease ratings were made. […] A dashed entry indicates the specified test was not performed.

[9] = tested on: Rhizoctonia solani; assay: Example F: rice sheath blight on rice seedlings; assay type: in vivo; conditions: 220 ppm, 0 = no disease control, 100 = 100% disease control
Description: The test compounds were dissolved in acetone in an amount equal to 6% of the final volume and then suspended at a concentration of 220 ppm in purified water containing 250 ppm of the surfactant TREM 014 (polyhydric alcohol esters). This suspension was sprayed to the point of run-off on rice seedlings. The following day plants were inoculated with a mycelial suspension of Rhizoctonia solani, the causal agent of rice sheath blight, and incubated in a saturated humidity chamber at 27° C. for 48 hours and then in a growth chamber at 29° C. for 4 days, when disease ratings were made. […] A dashed entry indicates the specified test was not performed.

[10] = tested on: Botyrtis cinerea; assay: Example C: bean grey mold on broad bean seedlings; assay type: in vivo; conditions: 200 ppm, 100 = 100% disease control
Description: as §2, with “[…]” for “014”, “broad bean” for “apple”, “Botyrtis cinerea,” for “Venturia inaequalis,”, “causal” for “casual”, “bean grey mold,” for “apple scab,”, “hours” for “hours and then in a growth chamber at 22° C. for 11 days,”

[11] = tested on: Ersiphe graminis f. sp. tritici; assay: Example D: wheat powdery mildew on wheat seedlings; assay type: in vivo; conditions: 200 ppm, 100 = 100% disease control
Description: The test compounds were dissolved in acetone in an amount equal to 6% of the final volume and then suspended at a concentration of 200 ppm in purified water containing 250 ppm of the surfactant TREM 014 (polyhydric alcohol esters). This suspension was sprayed to the point of run-off on wheat seedlings. […] A dashed entry indicates the specified test was not performed.

[12] = tested on: Plasmopara victicola; assay: Example I: grape downy mildew on grape seedlings; assay type: in vivo; conditions: 200 ppm, 100 = 100% disease control
Description: The test compounds were dissolved in acetone in an amount equal to 6% of the final volume and then suspended at a concentration of 200 ppm in purified water containing 250 ppm of the surfactant TREM 014 (polyhydric alcohol esters). This suspension was sprayed to the point of run-off on grape seedlings. The following day plants were inoculated with a spore suspension of Plasmopara victicola, the causal agent of grape downy mildew, and incubated in a saturated humidity chamber at 20° C. for 24 hours and then in a growth chamber at 20° C. for 7 days, and then held in a saturated humidity chamber at 20° C. for 24 hours, when disease ratings were made. […] A dashed entry indicates the specified test was not performed.

[13] = tested on: Phytophthora infestans; assay type: in vivo; conditions: tomato seedlings, 200 ppm; 100 = 100% disease control

CC(C)CCC[C@@H](C)[C@H]1CO[C@@]2(C)C3=C(CC[C@]12C)[C@@]1(C)CC[C@H](O)C(C)(C)[C@@H]1CC3 [Example 1, 15-Oxa-dihydrolanosterol]
Plasma Cholesterol, Treated [1]: 120. ± 2.0 mg/dl | IC50 [2]: 180 nM

CC(C)CCC[C@@H](C)[C@H]1CN=C2C3=C(CC[C@@]21C)[C@@]1(C)CC[C@H](O)C(C)(C)[C@@H]1CC3 [Example 1817]
disease control rating, Example G [3]: 62% | disease control rating, Example J [4]: 97% | disease control rating, Example B [5]: 25% | disease control rating, Example E [6]: 1% | disease control rating, Example K [7]: 99% | disease control rating, Example A [8]: 90% | disease control rating, Example F [9]: 0% | disease control rating, Example C [10]: 97% | IC50 [2]: 500 nM | disease control rating, Example D [11]: 92%

CC(C)CCC[C@@H](C)[C@H]1CN=C2C3=C(CC[C@@]21C)[C@@]1(C)CC[C@H](O)C[C@@H]1CC3 [Example 1818]
disease control rating, Example G [3]: 100% | disease control rating, Example J [4]: 78% | disease control rating, Example I [12]: 100% | disease control rating, Example B [5]: 95% | disease control rating, Example E [6]: 6% | disease control rating, Example K [7]: 100% | disease control rating, Example A [8]: 99% | disease control rating, Example F [9]: 0% | disease control rating, Example H [13]: 94% | disease control rating, Example C [10]: 95% | IC50 [2]: 160 nM | disease control rating, Example D [11]: 98%
